According to patent US7504382B2 (priority 2003, dated 2009):
Values after ≈ are worked out from the molar mass of the structure shown. Square brackets hold non-standard residues; d marks the D form. Peptide text beside a SMILES is read from it. * marks the point of attachment. ξ: configuration not given here. ξE = NC(CCC(=O)O)C(=O)O; Cbz = O=C(OCc1ccccc1)*; CH2F = FC*

Experiments:
[1] = tested on: SARS-CoV infected Vero-cells; assay type: cell-based; settings: concentration of 1 μM
[2] = tested on: Vero-cells
[3] = tested on: SARS-CoV infected Vero 76 cells; assay type: cell-based; settings: for EC50 (protection from virus-induced cell death): SARS-CoV infected Vero 76 cells, 72 h, neutral red; for SI value: from TC50 and EC50, indication of potential therapeutical index
[4] = tested on: uninfected Vero 76 cells

Row | Compound | inhibition of the cytopathic effect (CPE) of SARS-CoV [1] [%] | toxicity at the same concentration [2] | EC50 (protection from virus-induced cell death) [3] [µg/mL] | SI value [3] | TC50 (toxicity of the compound) [4] [µg/mL]
1 | CC(C)CC(NC(=O)C(NC(=O)OCc1ccccc1)C(C)C)C(=O)NC(CCC(=O)N(C)C)C(=O)CF (stereo not drawn) [Example 7, 4-(Cbz-Val-Leu-Amido)-6-Fluoro-5-Oxo-Hexanoic Acid Dimethylamide] (Cbz-Val-Leu-Glu(NMe2)-CH2F; configuration not given here) | 94.5 | no toxicity was observed | – | – | –
2 | CNC(=O)CCC(NC(=O)[C@H](CC(C)C)NC(=O)OCc1ccccc1)C(=O)CF (stereo partly drawn) [Example 12, 4-(Cbz-Leu-Amido)-6-Fluoro-5-Oxo-Hexanoic Acid Methylamide] (Cbz-Leu-[ξE](NHMe)-CH2F) | 100 | no toxicity was observed | – | – | –
3 | CC(C)[C@H](NC(=O)OCc1ccccc1)C(=O)NC(CC(=O)N(C)C)C(=O)CF (stereo partly drawn) [Example 17, 3-(Cbz-Val-Amido)-5-Fluoro-4-Oxo-Pentanoic Acid Dimethylamide] | – | – | 2.1 (≈ 5.13 µM) | > 24 | > 50
4 | CC(C)[C@H](NC(=O)OCc1ccccc1)C(=O)NC(CCC(=O)N(C)C)C(=O)CF (stereo partly drawn) [Example 24, 4-(Cbz-Val-Amido)-6-Fluoro-5-Oxo-Hexanoic Acid Dimethylamide] (Cbz-Val-[ξE](NMe2)-CH2F) | 100 | no toxicity was observed | 0.02 (≈ 0.0472 µM) | > 500 | > 10
